{"source": "patent US10172868B2", "about": "“Substituted quinazolines for inhibiting kinase activity” (NeuPharma, Inc., priority 2013, dated 2019)", "key": {"BTK": {"molecular_target": "BTK (Homo sapiens (Human), UniProt Q06187)", "sequence (Q06187 whole entry)": "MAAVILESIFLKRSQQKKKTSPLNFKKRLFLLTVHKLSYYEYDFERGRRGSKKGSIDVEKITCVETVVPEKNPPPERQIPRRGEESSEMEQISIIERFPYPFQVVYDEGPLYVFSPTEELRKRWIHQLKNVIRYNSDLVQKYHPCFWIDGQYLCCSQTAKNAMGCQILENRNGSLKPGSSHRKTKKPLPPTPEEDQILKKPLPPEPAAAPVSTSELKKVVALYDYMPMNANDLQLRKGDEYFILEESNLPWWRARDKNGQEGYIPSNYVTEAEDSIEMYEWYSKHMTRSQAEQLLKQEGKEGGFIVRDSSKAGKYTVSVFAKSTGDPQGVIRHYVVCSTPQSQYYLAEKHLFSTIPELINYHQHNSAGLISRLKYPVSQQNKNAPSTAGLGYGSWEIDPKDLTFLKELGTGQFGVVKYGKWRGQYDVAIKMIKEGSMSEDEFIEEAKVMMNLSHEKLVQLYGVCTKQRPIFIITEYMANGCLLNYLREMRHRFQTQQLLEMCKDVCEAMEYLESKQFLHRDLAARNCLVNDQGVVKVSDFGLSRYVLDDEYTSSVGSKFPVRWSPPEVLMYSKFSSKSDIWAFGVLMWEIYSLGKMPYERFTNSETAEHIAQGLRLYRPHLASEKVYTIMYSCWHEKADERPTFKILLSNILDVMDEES", "assay": "Z'-LYTE kinase inhibition assay, BTK", "assay_type": "biochemical", "details": "compound at 0.041 μM; read-out: % inhibition against BTK", "method": "Inhibitory activities of compounds against BTK, EGFR and EGFR mutants (EGFR L858R, EGFR T790M, EGFR L858R/T790M), FGFR1, FGFR2, JAK2, JAK3 and KDR were measured by Invitrogen using Z'-LYTE® Method as briefly described in the following.\nTest Compounds are screened in 1% DMSO (final) in the well. For 10 point titrations, 3-fold serial dilutions are conducted from the starting concentration. All ATP Solutions are diluted to a 4× working concentration in Kinase Buffer (50 mM HEPES pH 7.5, 0.01% BRIJ-35, 10 mM MgCl2, 1 mM EGTA). Peptide/Kinase Mixtures are diluted to a 2× working concentration in the appropriate Kinase Buffers as described below.\n(v) Peptide/Kinase Mixtures for Measurement of BTK:\nThe 2×BTK/Tyr 01 mixture is prepared in 50 mM HEPES pH 7.5. 0.01% BRIJ-35, 10 mM MgCl2, 1 mM EGTA.\nThe mixture is then incubated for another 60-minute at room temperature for development reaction. Finally fluorescence is read by plate reader.\nTo determine IC50 of a compound against EGFR, EGFR mutant and other kinases, a series of concentrations of the compound were tested for the inhibition. […] The scale utilized in Table 4 is as follows: +++ less than 100 nM, ++ 100-500 nM and + greater than 500 nM."}, "EGFR (ErbB1)": {"molecular_target": "EGFR (ErbB1) (Homo sapiens (Human), UniProt P00533)", "sequence (P00533 25-1210)": "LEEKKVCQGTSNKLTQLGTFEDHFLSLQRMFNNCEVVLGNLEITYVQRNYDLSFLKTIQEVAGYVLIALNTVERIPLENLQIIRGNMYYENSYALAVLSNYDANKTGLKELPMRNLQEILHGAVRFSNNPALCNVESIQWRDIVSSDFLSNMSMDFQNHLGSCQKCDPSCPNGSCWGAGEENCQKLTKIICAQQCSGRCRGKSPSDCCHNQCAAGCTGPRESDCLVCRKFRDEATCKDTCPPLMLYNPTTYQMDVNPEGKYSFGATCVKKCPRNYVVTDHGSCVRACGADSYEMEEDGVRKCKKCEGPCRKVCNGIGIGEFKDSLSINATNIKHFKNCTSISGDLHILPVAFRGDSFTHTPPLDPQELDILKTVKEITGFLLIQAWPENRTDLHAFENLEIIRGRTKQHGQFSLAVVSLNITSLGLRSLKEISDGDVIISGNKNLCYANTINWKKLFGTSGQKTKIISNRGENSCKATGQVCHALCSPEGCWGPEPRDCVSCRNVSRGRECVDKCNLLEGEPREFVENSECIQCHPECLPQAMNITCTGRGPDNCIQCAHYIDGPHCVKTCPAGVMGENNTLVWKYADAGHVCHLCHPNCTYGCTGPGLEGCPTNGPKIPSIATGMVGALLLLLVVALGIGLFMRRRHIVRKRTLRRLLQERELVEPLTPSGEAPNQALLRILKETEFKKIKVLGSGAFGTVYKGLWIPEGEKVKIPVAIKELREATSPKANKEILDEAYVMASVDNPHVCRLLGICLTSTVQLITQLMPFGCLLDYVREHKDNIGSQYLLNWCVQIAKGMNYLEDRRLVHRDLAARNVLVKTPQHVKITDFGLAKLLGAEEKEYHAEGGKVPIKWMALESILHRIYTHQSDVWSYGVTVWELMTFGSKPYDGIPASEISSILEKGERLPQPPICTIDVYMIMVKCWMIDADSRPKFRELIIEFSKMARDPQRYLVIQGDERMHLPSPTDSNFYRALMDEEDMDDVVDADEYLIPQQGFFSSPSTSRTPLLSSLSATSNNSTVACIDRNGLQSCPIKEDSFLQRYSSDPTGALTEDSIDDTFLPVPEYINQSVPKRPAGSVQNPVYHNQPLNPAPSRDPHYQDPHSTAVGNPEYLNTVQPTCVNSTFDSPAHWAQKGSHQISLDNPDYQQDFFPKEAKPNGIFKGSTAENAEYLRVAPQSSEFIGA", "assay": "Z'-LYTE kinase inhibition assay, EGFR", "assay_type": "biochemical", "details": "read-out: % inhibition against EGFR (Compound at 0.041 μM)", "in_short": "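Z'-LYTE FRET assay run with 1.1-5.25 ng EGFR and 2 μM peptide substrate in 50 mM HEPES pH 7.5, 10 mM MgCl2, 2 mM MnCl2, 1 mM EGTA, 1 mM DTT, 0.01% BRIJ-35, 1% DMSO. Kinase reaction 60 min at room temperature, then 60 min development; IC50 from 10-point 3-fold titrations.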"}, "H1975 cells": {"tested_on": "H1975 cells", "assay": "Inhibition of cancer cell growth, MTT assay, H1975", "details": "Homo sapiens, NCI-H1975, 72 h, read-out: IC50 in H1975 cells"}, "A431 cells": {"tested_on": "A431 cells", "assay": "cells", "details": "Homo sapiens, A-431, 72 h, read-out: IC50 in A431 cells"}, "EGFR (ErbB1) T790M L858R": {"molecular_target": "EGFR (ErbB1) T790M L858R (Homo sapiens (Human), UniProt P00533, L858R/T790M)", "sequence (P00533 25-1210 T790M/L858R)": "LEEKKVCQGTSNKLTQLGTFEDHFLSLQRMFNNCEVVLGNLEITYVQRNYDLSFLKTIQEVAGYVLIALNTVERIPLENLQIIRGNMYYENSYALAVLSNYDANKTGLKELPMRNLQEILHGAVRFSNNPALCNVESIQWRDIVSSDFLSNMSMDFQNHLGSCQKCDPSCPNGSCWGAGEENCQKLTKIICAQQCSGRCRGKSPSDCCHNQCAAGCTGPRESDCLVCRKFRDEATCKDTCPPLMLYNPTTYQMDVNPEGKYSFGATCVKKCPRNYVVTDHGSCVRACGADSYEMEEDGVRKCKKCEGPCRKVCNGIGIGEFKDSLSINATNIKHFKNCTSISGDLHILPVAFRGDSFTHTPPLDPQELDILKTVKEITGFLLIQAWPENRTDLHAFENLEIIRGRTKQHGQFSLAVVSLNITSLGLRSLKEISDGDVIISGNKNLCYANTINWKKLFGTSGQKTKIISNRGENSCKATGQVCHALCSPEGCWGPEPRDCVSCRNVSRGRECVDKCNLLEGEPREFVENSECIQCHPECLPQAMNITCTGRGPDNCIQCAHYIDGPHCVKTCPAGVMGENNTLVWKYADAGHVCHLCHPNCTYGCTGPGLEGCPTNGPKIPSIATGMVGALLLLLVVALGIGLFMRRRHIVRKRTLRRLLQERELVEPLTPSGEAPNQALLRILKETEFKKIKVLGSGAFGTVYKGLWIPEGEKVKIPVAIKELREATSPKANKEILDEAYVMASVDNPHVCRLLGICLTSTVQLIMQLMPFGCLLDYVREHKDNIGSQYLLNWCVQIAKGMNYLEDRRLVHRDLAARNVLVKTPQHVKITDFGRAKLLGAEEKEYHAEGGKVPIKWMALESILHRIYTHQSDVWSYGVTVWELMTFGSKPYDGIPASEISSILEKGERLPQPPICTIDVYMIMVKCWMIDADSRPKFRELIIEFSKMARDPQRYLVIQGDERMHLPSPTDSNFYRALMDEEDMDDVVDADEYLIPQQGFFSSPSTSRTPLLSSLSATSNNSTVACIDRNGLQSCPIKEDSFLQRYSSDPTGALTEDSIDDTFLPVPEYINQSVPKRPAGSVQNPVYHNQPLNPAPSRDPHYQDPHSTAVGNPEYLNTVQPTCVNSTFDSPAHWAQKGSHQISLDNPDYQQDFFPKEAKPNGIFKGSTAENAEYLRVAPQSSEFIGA", "assay": "Z'-LYTE kinase inhibition assay, EGFR L858R/T790M", "assay_type": "biochemical", "details": "for inhibition at 0.0137 µM: read-out: % inhibition against EGFR L858R/T790M (Compound at 0.0137 μM); for IC50: read-out: IC50 against EGFR L858R/T790M", "in_short": "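Z'-LYTE FRET peptide assay at 1% DMSO, 10-point 3-fold titrations; kinase/peptide mix in 50 mM HEPES pH 6.5, 0.01% BRIJ-35, 10 mM MgCl2, 1 mM EGTA, 0.02% NaN3. Kinase reaction ran 60 min at room temperature, followed by 60 min development and a fluorescence read. IC50 derived from the concentration series.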"}, "HCC827 cells": {"tested_on": "HCC827 cells", "assay": "cells", "details": "Homo sapiens, HCC827, 72 h, read-out: IC50 in HCC827 cells"}}, "data": [{"smiles": "C=CC(=O)Nc1cccc(-c2cccc3cnc(Nc4ccc(OCCN5CCC5)cc4)nc23)c1", "note": "[Example C109, N-(3-(2-((4-(2-(azetidin-1-yl)ethoxy)phenyl)amino)quinazolin-8-yl)phenyl)acrylamide]", "values": [{"measurement": "inhibition at 0.041 µM", "setting": "BTK", "result": "> 50", "unit": "%"}, {"measurement": "inhibition at 0.041 µM", "setting": "EGFR (ErbB1)", "result": "< 50", "unit": "%"}, {"measurement": "IC50", "setting": "H1975 cells", "result": "< 100", "unit": "nM"}, {"measurement": "IC50", "setting": "A431 cells", "result": "100 to 500", "unit": "nM"}, {"measurement": "inhibition at 0.0137 µM", "setting": "EGFR (ErbB1) T790M L858R", "result": "> 50", "unit": "%"}, {"measurement": "IC50", "setting": "EGFR (ErbB1) T790M L858R", "result": "< 100", "unit": "nM"}]}, {"smiles": "C=CC(=O)Nc1cccc(-c2cccc3cnc(Nc4ccc(N[C@H]5CCOC5)cc4)nc23)c1", "note": "[Example C114, (S)-N-(3-(2-((4-((tetrahydrofuran-3-yl)amino)phenyl)amino)quinazolin-8-yl)phenyl)acrylamide]", "values": [{"measurement": "inhibition at 0.041 µM", "setting": "BTK", "result": "> 50", "unit": "%"}, {"measurement": "inhibition at 0.041 µM", "setting": "EGFR (ErbB1)", "result": "< 50", "unit": "%"}, {"measurement": "IC50", "setting": "H1975 cells", "result": "< 100", "unit": "nM"}, {"measurement": "inhibition at 0.0137 µM", "setting": "EGFR (ErbB1) T790M L858R", "result": "< 50", "unit": "%"}]}, {"smiles": "C=CC(=O)Nc1cccc(-c2cccc3cnc(Nc4ccc(OC5CCOCC5)cc4)nc23)c1", "note": "[Example C112, N-(3-(2-((4-((tetrahydro-2H-pyran-4-yl)oxy)phenyl)amino)quinazolin-8-yl)phenyl)acrylamide]", "values": [{"measurement": "inhibition at 0.041 µM", "setting": "BTK", "result": "> 50", "unit": "%"}, {"measurement": "inhibition at 0.041 µM", "setting": "EGFR (ErbB1)", "result": "< 50", "unit": "%"}, {"measurement": "IC50", "setting": "H1975 cells", "result": "< 100", "unit": "nM"}, {"measurement": "inhibition at 0.0137 µM", "setting": "EGFR (ErbB1) T790M L858R", "result": "< 50", "unit": "%"}]}, {"smiles": "C=CC(=O)Nc1cccc(-c2cccc3cnc(Nc4ccc(O[C@@H]5CCOC5)cc4)nc23)c1", "note": "[Example C119, (R)-N-(3-(2-((4-((tetrahydrofuran-3-yl)oxy)phenyl)amino)quinazolin-8-yl)phenyl)acrylamide]", "values": [{"measurement": "inhibition at 0.041 µM", "setting": "BTK", "result": "> 50", "unit": "%"}, {"measurement": "inhibition at 0.041 µM", "setting": "EGFR (ErbB1)", "result": "< 50", "unit": "%"}, {"measurement": "IC50", "setting": "H1975 cells", "result": "< 100", "unit": "nM"}, {"measurement": "inhibition at 0.0137 µM", "setting": "EGFR (ErbB1) T790M L858R", "result": "< 50", "unit": "%"}]}, {"smiles": "C=CC(=O)Nc1cccc(-c2c(CO)ccc3cnc(Nc4ccc(N5CCN(C)CC5)cc4)nc23)c1", "note": "[Example C037, N-(3-(7-(hydroxymethyl)-2-((4-(4-methylpiperazin-1-yl)phenyl)amino)quinazolin-8-yl)phenyl)acrylamide]", "values": [{"measurement": "inhibition at 0.041 µM", "setting": "EGFR (ErbB1)", "result": "> 50", "unit": "%"}, {"measurement": "IC50", "setting": "H1975 cells", "result": "< 100", "unit": "nM"}, {"measurement": "IC50", "setting": "A431 cells", "result": "< 100", "unit": "nM"}, {"measurement": "IC50", "setting": "HCC827 cells", "result": "< 100", "unit": "nM"}]}, {"smiles": "C=CC(=O)Nc1cccc(-c2cccc3cnc(Nc4ccc(N[C@@H]5CCOC5)cc4)nc23)c1", "note": "[Example C115, (R)-N-(3-(2-((4-((tetrahydrofuran-3-yl)amino)phenyl)amino)quinazolin-8-yl)phenyl)acrylamide]", "values": [{"measurement": "inhibition at 0.041 µM", "setting": "BTK", "result": "> 50", "unit": "%"}, {"measurement": "inhibition at 0.041 µM", "setting": "EGFR (ErbB1)", "result": "< 50", "unit": "%"}, {"measurement": "IC50", "setting": "H1975 cells", "result": "100 to 500", "unit": "nM"}, {"measurement": "inhibition at 0.0137 µM", "setting": "EGFR (ErbB1) T790M L858R", "result": "< 50", "unit": "%"}]}, {"smiles": "Fc1ccc(OCCN2CCOCC2)cc1-c1cccc2cnc(Nc3ccc(N4CCNCC4)cc3)nc12", "note": "[Example C028, 8-(2-fluoro-5-(2-morpholinoethoxy)phenyl)-N-(4-(piperazin-1-yl)phenyl)quinazolin-2-amine]", "values": [{"measurement": "IC50", "setting": "H1975 cells", "result": "> 500", "unit": "nM"}, {"measurement": "IC50", "setting": "HCC827 cells", "result": "> 500", "unit": "nM"}, {"measurement": "inhibition at 1 µM", "setting": "EGFR (ErbB1) T790M L858R; read-out: % inhibition against EGFR L858R/T790M (Compound at 1 μM)", "result": "> 50", "unit": "%"}]}, {"smiles": "C=CC(=O)Nc1cccc(-c2cccc3cnc(Nc4ccc(OCCN(C)C)cc4)nc23)c1", "note": "[Example C110, N-(3-(2-((4-(2-(dimethylamino)ethoxy)phenyl)amino)quinazolin-8-yl)phenyl)acrylamide]", "values": [{"measurement": "inhibition at 0.041 µM", "setting": "BTK", "result": "> 50", "unit": "%"}, {"measurement": "inhibition at 0.041 µM", "setting": "EGFR (ErbB1)", "result": "< 50", "unit": "%"}, {"measurement": "IC50", "setting": "H1975 cells", "result": "< 100", "unit": "nM"}, {"measurement": "IC50", "setting": "A431 cells", "result": "< 100", "unit": "nM"}, {"measurement": "inhibition at 0.0137 µM", "setting": "EGFR (ErbB1) T790M L858R", "result": "> 50", "unit": "%"}, {"measurement": "IC50", "setting": "EGFR (ErbB1) T790M L858R", "result": "< 100", "unit": "nM"}]}, {"smiles": "C=CC(=O)Nc1cccc(-c2cccc3cnc(Nc4ccc(O[C@H]5CCOC5)cc4)nc23)c1", "note": "[Example C113, (S)-N-(3-(2-((4-((tetrahydrofuran-3-yl)oxy)phenyl)amino)quinazolin-8-yl)phenyl)acrylamide]", "values": [{"measurement": "inhibition at 0.041 µM", "setting": "BTK", "result": "> 50", "unit": "%"}, {"measurement": "inhibition at 0.041 µM", "setting": "EGFR (ErbB1)", "result": "< 50", "unit": "%"}, {"measurement": "IC50", "setting": "H1975 cells", "result": "< 100", "unit": "nM"}, {"measurement": "inhibition at 0.0137 µM", "setting": "EGFR (ErbB1) T790M L858R", "result": "< 50", "unit": "%"}]}, {"smiles": "C=CC(=O)Nc1cccc(-c2cccc3cnc(Nc4ccc(N5CCN(CC)CC5)cc4)nc23)c1F", "note": "[Example C038, N-(3-(2-((4-(4-ethylpiperazin-1-yl)phenyl)amino)quinazolin-8-yl)-2-fluorophenyl)acrylamide]", "values": [{"measurement": "IC50", "setting": "H1975 cells", "result": "< 100", "unit": "nM"}, {"measurement": "IC50", "setting": "HCC827 cells", "result": "< 100", "unit": "nM"}]}]}
